Results from patent US11591353B2 (Mindset Pharma Inc., priority 2020, dated 2023).

Key:
[1] = Liver microsomes stability, human; conditions: for half-life at 2 μM / microsomal CLint at 2 μM: microsomes; for Remaining Percentage (%) after 60 min Human: with NADPH, 2 μM, 0.5 mg/mL microsomes
Description: (§1) The objective of this study was to estimate in vitro metabolic stability of I-12 in pooled human, male rat and male mouse liver microsomes. The concentrations of parent compounds in reaction systems were evaluated by LC-MS/MS for estimating the stability in pooled human, male rat and male mouse liver microsomes. The in vitro intrinsic clearances of test compounds were determined as well.
(§2) A master solution in the “Incubation Plate” containing phosphate buffer, ultra-pure H2O, MgCl2 solution and liver microsomes was made according to Table-3. The mixture was pre-warmed at 37° C. water bath for 5 minutes.
(§3) 40 μL of 10 mM NADPH solution was added to each well. The final concentration of NADPH was 1 mM. The negative control samples were prepared by replacing NADPH with 40 μL of ultra-pure H2O. Samples were prepared in duplicate. Negative controls were prepared in singlet.
(§4) The reaction was started with the addition of 4 μL of 200 μM exemplary test compounds of the application or control compounds to each master solution to get the final concentration of 2 μM. This study was performed in duplicate.
(§5) Aliquots of 50 μL were taken from the reaction solution at 0, 15, 30, 45 and 60 minutes. The reaction solutions were stopped by the addition of 4 volumes of cold methanol with IS (100 nM alprazolam, 200 nM imipramine, 200 nM labetalol and 2 μM ketoprofen). Samples were centrifuged at 3,220 g for 40 minutes. Aliquot of 90 μL of the supernatant was mixed with 90 μL of ultra-pure H2O and then was used for LC-MS/MS analysis.
(§6) LC/MS analysis was performed for all samples from this study using a Shimadzu liquid chromatograph separation system equipped with degasser DGU-20A5R; solvent delivery unit LC-30AD; system controller SIL-30AC; column oven CTO-30A; CTC Analytics HTC PAL System. Mass spectrometric analysis was performed using an Triple Quad™ 5500 instrument.
(§7) All calculations were carried out using Microsoft Excel. Peak area ratios of test compound to internal standard (listed in the below table) were determined from extracted ion chromatograms.
(§8) All calculations were carried out using Microsoft Excel. Peak areas were determined from extracted ion chromatograms. The slope value, k, was determined by linear regression of the natural logarithm of the remaining percentage of the parent drug vs. incubation time curve.
(§9) Conversion of the in vitro t1/2 (min) into the in vitro intrinsic clearance (in vitro CLint, in μL/min/mg proteins) was done using the following equation (mean of duplicate determinations): […]

[2] = In vivo pharmacokinetics of I-28 and its metabolite I-45 in mice (i.v. and p.o.); parameters: species or system Male C57 BL/6 mice
Description: Male C57 BL/6 mice (25-30 g) from Charles River Labs were acclimatized for a minimum of 5 days prior to dosing. Body weights were recorded on the day of dosing.
Animals dosed p.o. were deprived of food overnight and fed ˜2 h following dosing.
Formulations were administered intravenously (i.v.) via the tail vein or orally (p.o.) by gavage with disposable feeding needles.
Serial blood samples were collected via tail snip. Terminal blood samples were collected under isoflurane anesthesia by cardiac puncture.
All blood samples were transferred into K2EDTA tubes on wet ice and centrifuged within 5 min (3200×g for 5 min at 4° C.) to obtain plasma. Plasma were stored at −80° C. until analysis.
AB Sciex QTRAP 4000 or 6500 MS/MS system equipped with an LC system with a binary pump, a solvent degasser, a thermostated column compartment and a multiplate autosampler. i. Analysis software: Phoenix® WinNonlin® 8.2 (Pharsight, Certara, Mountainview, Calif.) ii. Analysis methods: non-compartmental analysis, linear up/log down trapezoidal rule iii. PK parameters: C0, t1/2, AUC0-tlast, AUC0-∞, CL, VSS, MRT, tmax(po), Cmax(po), F, as appropriate C0 concentration extrapolated to time zero following an i.v. dose tmax time at which maximum concentration is observed Cmax maximum observed concentration Apparent t1/2 apparent terminal half-life area under the concentration vs time curve from time 0 to the time of the last AUC0-tlast measurable concentration AUC0-inf area under the concentration vs time curve from time 0 to infinity CL systemic clearance MRT0-inf mean residence time from time zero to infinity VSS steady-state volume of distribution F bioavailability=(Dose^iv*AUC^po)/(Dose^po*AUC^iv)*100

[3] = Liver microsomes stability, mouse; conditions: for half-life at 2 μM / microsomal CLint at 2 μM: male, mouse, microsomes; for Remaining Percentage (%) after 60 min Mouse: with NADPH, 2 μM, 0.5 mg/mL microsomes
Description: as §1, §2, §3, §4, §5, §6, §7, §8, §9

[4] = molecular target: human 5-HT2A (h5-HT2A) receptor (Homo sapiens (Human), UniProt P28223); assay: FLIPR assay, human 5-HT2A receptor under agonist mode; assay type: cell-based
Description: • I. Assessment of the activated effect of exemplary compounds of Formula I targeting on human 5-HT2A (h5-HT2A) receptor under agonist mode: Compound Preparation and Assay Controls I.a. Reagent and Materials:
1. Culture the cells in cell culture medium (DMEM containing 10% FBS 1× penicillin-streptomycin 300 μg/ml G418 and 100 μg/ml hygromycin B) at 37° C., 5% (v/v) CO2.
2. One day before the assays, detach the cell using TrypLE™ Express and count cells using cell counter.
3. Seed 20000 cells/well in 30 μl/well culture medium to a 384-well cell plate and incubate the cells overnight at 37° C., 5% (v/v) CO2.
4. On the assay day, prepare 2× dye solution following the manual of the FLIPR® Calcium 6 Assay Kit: i. Dilute the dye with assay buffer (20 mM HEPES in 1×HBSS, PH7.4); ii. Add probenecid to the final concentration of 5 mM; iii. Vortex vigorously for 1-2 minutes.
5. Medium from cell plate by flicking the cell plate on towel papers.
6. Add 10 μl of assay buffer and 10 μl of 2× dye solution to each well of the cell plate.
7. Put the cell plate on plate shaker, agitate the plate at 600 rpm for 2 minutes. Incubate the plate at 37° C. for 2 hours followed by additional 15-minute incubation at 25° C.
8. Prepare 3× compound in assay buffer: a. Dilute reference compounds to required concentration with DMSO. Add the compounds to a 384-well compound plate; b. Perform serial dilutions; c. Add 10 mM test compounds to the compound plate, perform 3-fold serial dilutions. d. […] Add 20 μl/well assay buffer to the compound plate; f. Mix the plate on plate shaker for 2 mins;
i. The normalized fluorescence reading (RFU) is calculated as shown follow, while Fmax and Fmin stand for maximum and minimum of calcium signal during defined time window: RFU=Fmax−Fmin
ii. Calculate the percentage activation by using following equation: […]
iii. Calculate EC50 by fitting % activation against log of compound concentrations with Hill equation using XLfit.

[5] = Liver microsomes stability, rat; conditions: for half-life at 2 μM / microsomal CLint at 2 μM: male, rat, microsomes; for Remaining Percentage (%) after 60 min Rat: with NADPH, 2 μM, 0.5 mg/mL microsomes
Description: as §1, §2, §3, §4, §5, §6, §7, §8, §9

[6] = male, C57 BL/6, iv, i.v., I-28 2.2 mg/kg, I-28 in mouse plasma, n = 2
[7] = i.v., Metabolite (I-45) alone 1 mg/kg, mouse plasma
[8] = p.o., Metabolite (I-45) alone 10 mg/kg, mouse plasma

[2H]C([2H])([2H])N(C([2H])([2H])[2H])C([2H])([2H])C([2H])([2H])c1c[nH]c2cccc(OC(=O)CCCCCCC/C=C\C/C=C\CCCCC)c12 [Compound I-28, 3-(2-(bis(methyl-d3)amino)ethyl-1,1,2,2-d4)-1H-indol-4-yl (9Z,12Z)-octadeca-9,12-dienoate]
half-life at 2 μM ([1]; human): 2.23 h
microsomal CLint at 2 μM ([1]; human): 10.4 µL/min/mg
metabolic stability in liver microsomes (in words) ([1]; human, rat and mouse liver microsomes, 60 minute): rapidly metabolized
Remaining Percentage (%) after 60 min Human [1]: 73.27%
AUC0-inf/Dose (h*kg*ng/mL/mg) ([2]; i.v., I-28 2.2 mg/kg, I-28 in mouse plasma, n = 2): 62.1 (n = 2) h*kg*ng/mL/mg
C0 ([2]; male, C57 BL/6, iv, i.v., I-28 2.2 mg/kg (equimolar to 1 mg/kg metabolite), I-28 in mouse plasma): 0.448 ± 0.411 µg/mL
AUC(0-inf) [2, 6]: 0.137 µg·h/mL
clearance [2, 6]: 23.1 L/h/kg
half-life ([2]; male, C57 BL/6, iv, i.v., I-28 2.2 mg/kg, I-28 in mouse plasma, n = 2, read-out: Apparent t1/2 (converted)): 4.92 h
MRT inf ([2]; male, C57 BL/6, iv, i.v., I-28 2.2 mg/kg, I-28 in mouse plasma, n = 2, read-out: MRT0-inf): 0.977 h
Vd ([2]; male, C57 BL/6, iv, i.v., I-28 2.2 mg/kg, I-28 in mouse plasma, n = 2, read-out: VSS): 17 L/kg
AUC(0-t) ([2]; male, C57 BL/6, iv, i.v., I-28 2.2 mg/kg, I-28 in mouse plasma, read-out: AUC0-tlast): 0.11 ± 0.0859 µg·h/mL
Tmax ([2]; male, C57 BL/6, po, p.o., I-28 22 mg/kg (equimolar to 10 mg/kg metabolite), I-28 in mouse plasma): 2.17 ± 3.32 h
Cmax ([2]; male, C57 BL/6, po, p.o., I-28 22 mg/kg, I-28 in mouse plasma): 0.00106 ± 0.000447 µg/mL
Cmax/Dose ([2]; p.o., I-28 22 mg/kg, I-28 in mouse plasma): 0.0482 ± 0.0203 kg·ng/mL/mg
half-life at 2 μM [3]: 0.276 h
microsomal CLint at 2 μM [3]: 83.7 µL/min/mg
Remaining Percentage (%) after 60 min Mouse [3]: 8.12%
EC50 [4]: 0.965 µM
half-life at 2 μM [5]: 0.659 h
microsomal CLint at 2 μM [5]: 35.1 µL/min/mg
Remaining Percentage (%) after 60 min Rat [5]: 34.92%

[2H]C([2H])([2H])N(C([2H])([2H])[2H])C([2H])([2H])C([2H])([2H])c1c[nH]c2cccc(O)c12 [Compound I-45, 3-(2-(bis(methyl-d3)amino)ethyl-1,1,2,2-d4)-1H-indol-4-ol]
half-life at 2 μM ([1]; human): 5.01 h
microsomal CLint at 2 μM ([1]; human): 4.61 µL/min/mg
Remaining Percentage (%) after 60 min Human [1]: 87.08%
AUC0-inf/Dose [2, 7]: 181 ± 30.8 kg·ng·h/mL/mg
Apparent t1/2 [2, 7]: 5.32 ± 2.99 h
C0 ([2]; male, C57 BL/6, mouse, plasma, iv, 1 mg/kg): 0.566 ± 0.085 µg/mL
AUC0-inf/Dose [2, 8]: 79.5 ± 12.1 kg·ng·h/mL/mg
Apparent t1/2 [2, 8]: 4.52 ± 0.481 h
Cmax/Dose [2, 8]: 70.4 ± 12.8 kg·ng/mL/mg
half-life at 2 μM [3]: 4.09 h
microsomal CLint at 2 μM [3]: 5.65 µL/min/mg
Remaining Percentage (%) after 60 min Mouse [3]: 84.40%
agonist effect on h5-HT2A receptor (in words) ([4]; agonist mode, FLIPR): active agonist
half-life at 2 μM [5]: 1.76 h
microsomal CLint at 2 μM [5]: 13.1 µL/min/mg
Remaining Percentage (%) after 60 min Rat [5]: 67.47%
